Measurements taken from patent US9936701B2, “Herbicidal compounds” (Syngenta Participations AG, priority 2013, dated 2018).
Blank lines part the entries; values can stand above or below the compound they belong to.

Experiments:
[1] = test system: a variety of test species; assay: Pre-emergence herbicidal activity (glasshouse, sprayed one day after sowing, evaluated after 13 days); assay type: in vivo; set-up: key: 5=total damage to plant; 0=no damage to plant; settings: application pre-emergence, rate 1000 g/Ha, scale 0-5
Outline: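 Damage rated 13 days post-treatment on a 0-5 scale, 5 meaning total plant damage. Pots were sprayed pre-emergence, one day after sowing, with an acetone/water-derived aqueous spray containing 0.5% Tween 20. Plants grew under 14 h light, 65% humidity, 24/16 °C, watered twice daily.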

[2] = test system: a variety of test species; assay: Post-emergence herbicidal activity (glasshouse, sprayed after 8 days cultivation, evaluated after 13 days); assay type: in vivo; set-up: key: 5=total damage to plant; 0=no damage to plant; settings: rate 1000 g/Ha, scale 0-5
Outline: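 Visual herbicidal injury (0 = no damage, 5 = plant killed) recorded 13 days post-treatment. Treatment consisted of a single spray onto emerged seedlings at day 8; conditions before and after were 24/16 °C, 14 h light, 65% humidity.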

SMILES: C=CC(C)(C)c1cc(N2C(=O)C(Cl)=C(C)C2O)no1 (stereo not shown) [A41]
- Pre-emergence herbicidal damage score, ABUTH [1]: 5
- Pre-emergence herbicidal damage score, ALOMY [1]: 4
- Pre-emergence herbicidal damage score, AMARE [1]: 5
- Pre-emergence herbicidal damage score, ECHCG [1]: 4
- Pre-emergence herbicidal damage score, SETFA [1]: 5
- Pre-emergence herbicidal damage score, ZEAMX [1]: 3
- melting point: 114 to 116 °C
- ABUTH (Abutilon theophrasti) damage score, application post-emergence [2]: 5
- ALOMY (Alopecurus myosuroides) damage score, application post-emergence [2]: 5
- AMARE (Amaranthus retroflexus) damage score, application post-emergence [2]: 5
- ECHCG (Echinochloa crus-galli) damage score, application post-emergence [2]: 5
- SETFA (Setaria faberi) damage score, application post-emergence [2]: 5
- ZEAMX (Zea mays) damage score, application post-emergence [2]: 4

SMILES: CC1=C(Cl)C(=O)N(c2cc(C(C)(C)C#N)on2)C1O (stereo not shown) [A42]
- Pre-emergence herbicidal damage score, ABUTH [1]: 5
- Pre-emergence herbicidal damage score, ALOMY [1]: 4
- Pre-emergence herbicidal damage score, AMARE [1]: 5
- Pre-emergence herbicidal damage score, ECHCG [1]: 4
- Pre-emergence herbicidal damage score, SETFA [1]: 5
- Pre-emergence herbicidal damage score, ZEAMX [1]: 2
- melting point: 145 to 147 °C
- ABUTH (Abutilon theophrasti) damage score, application post-emergence [2]: 5
- ALOMY (Alopecurus myosuroides) damage score, application post-emergence [2]: 5
- AMARE (Amaranthus retroflexus) damage score, application post-emergence [2]: 5
- ECHCG (Echinochloa crus-galli) damage score, application post-emergence [2]: 5
- SETFA (Setaria faberi) damage score, application post-emergence [2]: 5
- ZEAMX (Zea mays) damage score, application post-emergence [2]: 4

SMILES: CCC(C)(CC)c1cc(N2C(=O)C(Cl)=C(C)C2O)no1 (stereo not shown) [A43]
- Pre-emergence herbicidal damage score, ABUTH [1]: 4
- Pre-emergence herbicidal damage score, ALOMY [1]: 4
- Pre-emergence herbicidal damage score, AMARE [1]: 5
- Pre-emergence herbicidal damage score, ECHCG [1]: 4
- Pre-emergence herbicidal damage score, SETFA [1]: 5
- Pre-emergence herbicidal damage score, ZEAMX [1]: 2
- melting point: 104 to 106 °C
- ABUTH (Abutilon theophrasti) damage score, application post-emergence [2]: 5
- ALOMY (Alopecurus myosuroides) damage score, application post-emergence [2]: 5
- AMARE (Amaranthus retroflexus) damage score, application post-emergence [2]: 5
- ECHCG (Echinochloa crus-galli) damage score, application post-emergence [2]: 5
- SETFA (Setaria faberi) damage score, application post-emergence [2]: 5
- ZEAMX (Zea mays) damage score, application post-emergence [2]: 2

SMILES: CC1=C(Cl)C(=O)N(c2noc(C(C)C)c2C#N)C1O (stereo not shown) [A44, 3-(4-chloro-2-hydroxy-3-methyl-5-oxo-2H-pyrrol-1-yl)-5-isopropyl-isoxazole-4-carbonitrile]
- Pre-emergence herbicidal damage score, ABUTH [1]: 5
- Pre-emergence herbicidal damage score, ALOMY [1]: 4
- Pre-emergence herbicidal damage score, AMARE [1]: 5
- Pre-emergence herbicidal damage score, ECHCG [1]: 4
- Pre-emergence herbicidal damage score, SETFA [1]: 5
- Pre-emergence herbicidal damage score, ZEAMX [1]: 3
- melting point: 117 to 119 °C
- ABUTH (Abutilon theophrasti) damage score, application post-emergence [2]: 5
- ALOMY (Alopecurus myosuroides) damage score, application post-emergence [2]: 5
- AMARE (Amaranthus retroflexus) damage score, application post-emergence [2]: 5
- ECHCG (Echinochloa crus-galli) damage score, application post-emergence [2]: 5
- SETFA (Setaria faberi) damage score, application post-emergence [2]: 5
- ZEAMX (Zea mays) damage score, application post-emergence [2]: 4

SMILES: CCC(C)(CC)c1onc(N2C(=O)C(Cl)=C(C)C2O)c1C#N (stereo not shown) [A45]
- Pre-emergence herbicidal damage score, ABUTH [1]: 4
- Pre-emergence herbicidal damage score, ALOMY [1]: 3
- Pre-emergence herbicidal damage score, AMARE [1]: 5
- Pre-emergence herbicidal damage score, ECHCG [1]: 3
- Pre-emergence herbicidal damage score, SETFA [1]: 4
- Pre-emergence herbicidal damage score, ZEAMX [1]: 2
- melting point: 129 to 130 °C
- ABUTH (Abutilon theophrasti) damage score, application post-emergence [2]: 5
- ALOMY (Alopecurus myosuroides) damage score, application post-emergence [2]: 5
- AMARE (Amaranthus retroflexus) damage score, application post-emergence [2]: 5
- ECHCG (Echinochloa crus-galli) damage score, application post-emergence [2]: 5
- SETFA (Setaria faberi) damage score, application post-emergence [2]: 5
- ZEAMX (Zea mays) damage score, application post-emergence [2]: 3

More lines, main results first:

- melting point: 113 to 115 °C
SMILES: CCCC(C)(C)c1onc(N2C(=O)C(Cl)=C(C)C2O)c1C#N (stereo not shown) [A46]
- Pre-emergence herbicidal damage score, ABUTH [1]: 2
- Pre-emergence herbicidal damage score, ALOMY [1]: 4
- Pre-emergence herbicidal damage score, AMARE [1]: 5
- Pre-emergence herbicidal damage score, ECHCG [1]: 4
- Pre-emergence herbicidal damage score, SETFA [1]: 4
- Pre-emergence herbicidal damage score, ZEAMX [1]: 3
- ABUTH (Abutilon theophrasti) damage score, application post-emergence [2]: 5
- ALOMY (Alopecurus myosuroides) damage score, application post-emergence [2]: 5
- AMARE (Amaranthus retroflexus) damage score, application post-emergence [2]: 5
- ECHCG (Echinochloa crus-galli) damage score, application post-emergence [2]: 5
- SETFA (Setaria faberi) damage score, application post-emergence [2]: 5
- ZEAMX (Zea mays) damage score, application post-emergence [2]: 3

- melting point: 99 to 101 °C
SMILES: CCCCC(C)(C)c1onc(N2C(=O)C(Cl)=C(C)C2O)c1C#N (stereo not shown) [A47]
- Pre-emergence herbicidal damage score, ABUTH [1]: 0
- Pre-emergence herbicidal damage score, ALOMY [1]: 2
- Pre-emergence herbicidal damage score, AMARE [1]: 5
- Pre-emergence herbicidal damage score, ECHCG [1]: 2
- Pre-emergence herbicidal damage score, SETFA [1]: 1
- Pre-emergence herbicidal damage score, ZEAMX [1]: 2
- ABUTH (Abutilon theophrasti) damage score, application post-emergence [2]: 5
- ALOMY (Alopecurus myosuroides) damage score, application post-emergence [2]: 5
- AMARE (Amaranthus retroflexus) damage score, application post-emergence [2]: 5
- ECHCG (Echinochloa crus-galli) damage score, application post-emergence [2]: 5
- SETFA (Setaria faberi) damage score, application post-emergence [2]: 5
- ZEAMX (Zea mays) damage score, application post-emergence [2]: 2

- melting point: 107 to 109 °C
SMILES: CCC(C)c1onc(N2C(=O)C(Cl)=C(C)C2O)c1C#N (stereo not shown) [A49]
- Pre-emergence herbicidal damage score, ABUTH [1]: 5
- Pre-emergence herbicidal damage score, ALOMY [1]: 3
- Pre-emergence herbicidal damage score, AMARE [1]: 5
- Pre-emergence herbicidal damage score, ECHCG [1]: 4
- Pre-emergence herbicidal damage score, SETFA [1]: 5
- Pre-emergence herbicidal damage score, ZEAMX [1]: 1
- ABUTH (Abutilon theophrasti) damage score, application post-emergence [2]: 5
- ALOMY (Alopecurus myosuroides) damage score, application post-emergence [2]: 4
- AMARE (Amaranthus retroflexus) damage score, application post-emergence [2]: 5
- ECHCG (Echinochloa crus-galli) damage score, application post-emergence [2]: 5
- SETFA (Setaria faberi) damage score, application post-emergence [2]: 5
- ZEAMX (Zea mays) damage score, application post-emergence [2]: 2

- melting point: 182 to 184 °C
SMILES: CC1=C(Br)C(=O)N(c2noc(C(C)(C)C)c2C#N)C1O (stereo not shown) [A50]
- Pre-emergence herbicidal damage score, ABUTH [1]: 5
- Pre-emergence herbicidal damage score, ALOMY [1]: 3
- Pre-emergence herbicidal damage score, AMARE [1]: 5
- Pre-emergence herbicidal damage score, ECHCG [1]: 4
- Pre-emergence herbicidal damage score, SETFA [1]: 5
- Pre-emergence herbicidal damage score, ZEAMX [1]: 3
- ABUTH (Abutilon theophrasti) damage score, application post-emergence [2]: 5
- ALOMY (Alopecurus myosuroides) damage score, application post-emergence [2]: 4
- AMARE (Amaranthus retroflexus) damage score, application post-emergence [2]: 5
- ECHCG (Echinochloa crus-galli) damage score, application post-emergence [2]: 5
- SETFA (Setaria faberi) damage score, application post-emergence [2]: 5
- ZEAMX (Zea mays) damage score, application post-emergence [2]: 3

- melting point: 123 to 124 °C
SMILES: CCCC1=C(Br)C(=O)N(c2noc(C(C)(C)C)c2C#N)C1O (stereo not shown) [A51]
- Pre-emergence herbicidal damage score, ABUTH [1]: 4
- Pre-emergence herbicidal damage score, ALOMY [1]: 3
- Pre-emergence herbicidal damage score, AMARE [1]: 5
- Pre-emergence herbicidal damage score, ECHCG [1]: 4
- Pre-emergence herbicidal damage score, SETFA [1]: 4
- Pre-emergence herbicidal damage score, ZEAMX [1]: 3
- ABUTH (Abutilon theophrasti) damage score, application post-emergence [2]: 5
- ALOMY (Alopecurus myosuroides) damage score, application post-emergence [2]: 4
- AMARE (Amaranthus retroflexus) damage score, application post-emergence [2]: 5
- ECHCG (Echinochloa crus-galli) damage score, application post-emergence [2]: 5
- SETFA (Setaria faberi) damage score, application post-emergence [2]: 5
- ZEAMX (Zea mays) damage score, application post-emergence [2]: 3
